Results reported in US10781236B2, “Bacteriocin composition and method” (priority 2015, dated 2020).

Columns and labels:
[1] = tested on: P. pentosaceus LMGT 2366; assay: Relative MIC, inhibitory spectrum; format: cell-based, Pediococcus pentosaceus; conditions: relative to L. lactis IL 1403 = 1
[2] = tested on: Clostridium bifermentans LMGT 2519; assay: Relative MIC, inhibitory spectrum; format: cell-based; conditions: relative to L. lactis IL 1403 = 1
[3] = tested on: L. lactis IL1403; assay: Relative MIC, inhibitory spectrum; format: cell-based, Lactococcus lactis; conditions: the reference indicator, referred to as 1
[4] = tested on: L. lactis LMGT 2081; assay: Relative MIC, inhibitory spectrum; format: cell-based, Lactococcus lactis; conditions: relative to L. lactis IL 1403 = 1
[5] = tested on: E. faecium LMGT 2783; assay: Relative MIC, inhibitory spectrum; format: cell-based, Enterococcus faecium; conditions: relative to L. lactis IL 1403 = 1
[6] = tested on: Strep. Thermophylus; assay: Antimicrobial activity against problematic bacteria; format: cell-based, Streptococcus thermophylus; conditions: food sources
Method: (§1) To screen for bacteriocin producers with broad inhibition spectra (BIS), Lactococcus lactis, Lactobacillus sakei, Lactobacillus plantarum, Listeria innocua, and Staphylococcus aureus from the food and dairy environment were used as indicators in the first round of screening. The antimicrobial screening was performed using the agar diffusion bioassay as previously described (Holo et al., 1991, J. Bacteriol., 173, p 3879-3887). Briefly, indicator cells from overnight cultures were diluted 100-fold in 5 mL of BHI soft agar and plated out as a lawn on BHI agar plates. Potential bacteriocin producers at volumes of 3 μL were spotted on the indicator lawn and then incubated at appropriate temperatures for 24 h for cell growth and cell inhibition. Inhibition was detected as clear zones around the spotted cells.
(§2) As the antimicrobial activity of garvicin KS is relatively broad, we explored further its potential to kill a larger panel of important pathogens. The list contained 147 problematic or potentially problematic bacteria of species belonging to Listeria, Staphylococcus, Streptococcus and Enterococcus, isolated from food and clinical sources. In this assay, we compared the antimicrobial activity of garvicin KS with that of garvicin ML and nisin, the last one being known as a broad inhibition-spectrum bacteriocin (AIKhatib et al., 2014, PLOS One 9:e102246 doi:10.1371/joumal.pone.0102246). […]

[7] = tested on: L. lactis LMGT 2130; assay: Relative MIC, inhibitory spectrum; format: cell-based, Lactococcus lactis; conditions: relative to L. lactis IL 1403 = 1
[8] = tested on: Lactobacillus curvatus LMGT 2353; assay: Relative MIC, inhibitory spectrum; format: cell-based; conditions: relative to L. lactis IL 1403 = 1
[9] = tested on: L. curvatus LMGT 2355; assay: Relative MIC, inhibitory spectrum; format: cell-based, Lactobacillus curvatus; conditions: relative to L. lactis IL 1403 = 1
[10] = tested on: E. faecium LMGT 2772; assay: Relative MIC, inhibitory spectrum; format: cell-based, Enterococcus faecium; conditions: relative to L. lactis IL 1403 = 1
[11] = tested on: L. lactis LMGT 3419; assay: Relative MIC, inhibitory spectrum; format: cell-based, Lactococcus lactis; conditions: relative to L. lactis IL 1403 = 1
[12] = tested on: Staph. Aureus; assay: Antimicrobial activity against problematic bacteria; format: cell-based, Staphylococcus aureus
Method: as §1, §2

[13] = tested on: L. monocytogenes LMGT 2650; assay: Relative MIC, inhibitory spectrum; format: cell-based, Listeria monocytogenes; conditions: relative to L. lactis IL 1403 = 1
[14] = tested on: Staphylococcus aureus LMGT 3022; assay: Relative MIC, inhibitory spectrum; format: cell-based; conditions: relative to L. lactis IL 1403 = 1
[15] = tested on: E. faecium LMGT 2876; assay: Relative MIC, inhibitory spectrum; format: cell-based, Enterococcus faecium; conditions: relative to L. lactis IL 1403 = 1
[16] = tested on: Leuconostoc gelidium LMGT 2386; assay: Relative MIC, inhibitory spectrum; format: cell-based; conditions: relative to L. lactis IL 1403 = 1
[17] = tested on: Bacillus cereus LMGT 2805; assay: Relative MIC, inhibitory spectrum; format: cell-based; conditions: relative to L. lactis IL 1403 = 1

garvicin ML
Relative MIC value [1]: 64
Relative MIC value [2]: 16-32
Relative MIC value [3]: 1
Relative MIC value [4]: ≤0.25
Relative MIC value [5]: 64
number of sensitive strains / number of strains tested [6]: 8/8
Relative MIC value [7]: 8
Relative MIC value [8]: 16
Relative MIC value [9]: 2-4
Relative MIC value [10]: 32
Relative MIC value [11]: ≤0.25
number of sensitive strains / number of strains tested ([12]; clinical sources): 9/25
number of sensitive strains / number of strains tested ([12]; food sources): 4/28
Relative MIC value [13]: 64
Relative MIC value [14]: 512
Relative MIC value [15]: 64-128
Relative MIC value [16]: 32-64
Relative MIC value [17]: 64
